≈ marks a conversion by molar mass, not a printed value.
Columns and labels:
Ehrlich carcinoma = assay: Therapeutic treatment of Ehrlich carcinoma-bearing mice by intraperitoneal injection; format: in vivo, ICR mice
Method: (a) Experiments for therapeutic treatment of Ehrlich carcinoma-bearing mice were conducted by intraperitoneal injection of the antibiotic MI43-37F11 substance. Thus, a cell suspension of Ehrlich ascites carcinoma cells was subcutaneously inoculated at the abdominal region of ICR mice (female, 6-week old, 4 mice in each treated group) so that the number of the carcinoma cells as subcutaneously transplanted was 2×10^6 cells per mouse. After the transplantation of the carcinoma cells, the antibiotic MI43-37F11 substance was administered by intraperitoneal injection to the mice having the transplanted and firmly grown carcinoma cells, according to the following schedule of administration. Namely, MI43-37F11 substance was administered at a dosage of 10 mg/kg or 2.5 mg/kg or 0.625 mg/kg only once on the 7th day after the transplantation of the cells, or alternatively MI43-37F11 substance was administered at a dosage of 2.5 mg/kg or 1.25 mg/kg or 0.625 mg/kg, totally five times but every other day from the 7th day to the 14th day after the transplantation of the carcinoma cells. The administration of MI43-37F11 substance was not made but intraperitoneal injection of physiological saline was made in the mice of the control group (untreated) (8 mice in each control group).
On the 15th day after the transplantation of the carcinoma cells, the mass of the tumor (carcinoma) was surgically removed out of each mouse and weighed. The rate of the reduction in the weight of the tumor (carcinoma) obtained from the group of mice treated with MI43-37F11 substance was evaluated in term of the rate (%) of inhibition, with such an assumption that the weight of the tumor obtained from the control group of mice was amounting to 100. In other words, the rate (%) of inhibition to the growth of Ehrlich carcinoma was calculated according to the following equation [formula] where C means the weight of the tumor in the control group of mice (untreated) and T means the weight of the tumor of the treated group of mice.

Solubility = format: physicochemical
peritoneal macrophages = assay: Effect on phagocytosis of the peritoneal macrophages; format: in vivo, CDF1 mice; settings: for Rate (%) of Increase in phagocytic action of peritoneal macrophages: 3 days and one day before harvest, control 100
Method: (4) Experiments for estimation of the effect of the antibiotic MI43-37F11 substance on phagocytosis of the peritoneal macrophages were conducted by the following procedure. Thus, 3 days and one day before the harvest of the peritoneal macrophages, MI43-37F11 substance was intraperitoneally administered to CDF1 mice (female, 8-weeks old, 3 mice) at a dosage of 50 mg/kg, 5 mg/kg or 0.5 mg/kg. One day after the administration of MI43-37F11 substance, the peritoneal macrophages were harvested from the peritoneal cavity of the mice of the treated group of mice and then inoculated into a culture medium present in a plastic dish (Falcone) at the cell density of 5×10^5 cells/m(, followed by incubation of the macrophages. The incubated medium containing the macrophages was then added with 7.5×10^6 cells/ml of heat-treated yeast cells, followed by further incubation for a time. The macrophages were then fixed by addition of methanol and stained by Giemsa staining method. The number of the yeast cells which received the phagocytosis by 400 macrophages was counted. The control group of mice (untreated) received only intraperitoneal injection of physiological saline in place of the administration of MI43-37F11 substance, before the harvest of the peritoneal macrophages was done. Assumed that the number of the yeast cells which had received the phagocytosis by 400 macrophages as harvested from the mice of the control group was amounting to 100, the rate of increase in the phagocytic action of the peritoneal macrophages as harvested from the treated group of mice was evaluated. In other words, the rate (%) of increase in the phagocytic action of the peritoneal macrophages of the mice of the treated group was calculated according to the following equation: [formula] where T means the mumber of yeast cells having received the phagocytosis by 400 macrophages which were harvested from the treated group of mice, and C means the number of yeast cells having received the phagocytosis by 400 macrophages which were harvested from the control group of mice (untreated).

mouse Leukemia L1210 = assay: Inhibition of proliferation of mouse leukemia L1210 cells; format: cell-based; settings: 48 h; mouse leukemia L1210, 37° C, 2 days
Method: (§1) A cell suspension containing cells of mouse Leukemia L1210, mouse Leukemia P388, mouse Leukemia EL4, mouse IMC carcinoma or human lung cancer LX-1 cells in a culture medium containing 10% calf serum at a cell density of 1 x 10^5 cells/ml was prepared, and 200 μl-portion of the cell suspension so prepared was placed in a microplate and then added with a solution of MI43-37F11 substance at varying concentrations (dissolved in a mixture of water and dimethylsulfoxide (95:5)). The cell suspension containing the test compound added was subsequently incubated at 37° C for 2 days (but 5 days for the LX-1 cells).
(§2) After the incubation, the number of the cells of the L1210 cells, P388 cells, the EL4 cells and the IMC carcinoma cells in the treated groups was counted by means of Coulter-counter. The control group (untreated) of the cell suspension to which the test compound was not added was incubated in the same way as above and then the number of the cells was similarly counted.
(§3) Rate (%) of inhibition of the cell proliferation of the treated group against that of the control group (untreated) was evaluated. […]

mouse Leukemia EL4 = assay: Inhibition of proliferation of mouse leukemia EL4 cells; format: cell-based; settings: 48 h; mouse leukemia EL4, 37° C, 2 days
Method: as §1, §2, §3

human lung cancer LX-1 = assay: Inhibition of proliferation of human lung cancer LX-1 cells (MTT); format: cell-based; settings: 120 h, human lung cancer LX-1, 37° C, 5 days
Method: as §1, with “cells). […]” for “cells).”

Compound: COc1cc(O)c2c(=O)oc(CO)cc2c1 [MI43-37F11 substance]
- Rate (%) of Inhibition (Ehrlich carcinoma; 0.625 mg/kg i.p., 7th day (only once), tumor weight on 15th day): 12%
- Rate (%) of Inhibition (Ehrlich carcinoma; 0.625 mg/kg/day i.p., 7th day to 14th day, every second day, totally 5 times): 30%
- Rate (%) of Inhibition (Ehrlich carcinoma; 1.25 mg/kg/day i.p., 7th day to 14th day, every second day, totally 5 times): 67%
- Rate (%) of Inhibition (Ehrlich carcinoma; 2.5 mg/kg i.p., 7th day (only once), tumor weight on 15th day): 51%
- Rate (%) of Inhibition (Ehrlich carcinoma; 2.5 mg/kg/day i.p., 7th day to 14th day, every second day, totally 5 times): 60%
- Rate (%) of Inhibition (Ehrlich carcinoma; 10 mg/kg i.p., 7th day (only once), tumor weight on 15th day): 59%
- Solubility (Solubility; in acetonitrile): easily soluble
- Solubility (Solubility; in chloroform): soluble
- Solubility (Solubility; in hexane): hardly soluble
- Solubility (Solubility; in methanol): soluble
- Solubility (Solubility; in water): hardly soluble
- Rate (%) of Increase in phagocytic action of peritoneal macrophages (peritoneal macrophages; 0.5 mg/kg i.p.): 102%
- Rate (%) of Increase in phagocytic action of peritoneal macrophages (peritoneal macrophages; 5 mg/kg i.p.): 80%
- Rate (%) of Increase in phagocytic action of peritoneal macrophages (peritoneal macrophages; 50 mg/kg i.p.): 144%
- enhance the phagocytic action of the macrophages (peritoneal macrophages; summary in words): effective
- IC50 (mouse Leukemia L1210): 50 µg/mL (≈ 225 µM)
- IC50 (mouse Leukemia EL4): 52 µg/mL (≈ 234 µM)
- IC50 (human lung cancer LX-1): 100 µg/mL (≈ 450 µM)

From patent US5096924A, “Anticancer antibiotic MI43-37F11 substance” (501 Azidan Hojin Biseibutsu Kagaku Kenkyu Kai, priority 1989, dated 1992)
